From patent EP4501917A1, “3,4-DIHYDROQUINOXALINE-2-CARBOXIMIDE DERIVATIVE COMPOUND AND PHARMACEUTICAL COMPOSITION COMPRISING SAME FOR PREVENTING OR TREATING CANCER DISEASE” (Daegu-Gyeongbuk Medical Innovation Foundation, priority 2022, dated 2023)

How the values were obtained:
HDAC4 = HDAC4 (Homo sapiens, UniProt P56524); test: Selective HDAC inhibition, HDAC Fluorogenic assay kit; settings: read-out: HDAC4 enzyme activity (%)
Protocol: (§1) For analysis, HDAC substrate 3 was diluted in buffer to a concentration of 200 µM and used in HDAC 1, 2, 3, 6, and 10 assays, HDAC substrate 2A was diluted in buffer to a concentration of 200 µM and used in HDAC 4, 7, 9, and 11 assays, HDAC substrate 2A was diluted in buffer to a concentration of 20 µM and used in HDAC 8 assays. For the HDAC 11 assay, a dedicated buffer included in the kit was used separately, and the same buffer was used for the remaining assays. The compound of the Example was diluted to 1 mM (1% DMSO concentration) using DMSO to obtain a final concentration of 10 µM, and prepared by diluting 1/10 with assay buffer. In a 96-well black round-bottom plate, 5 µL of the diluted compound of the Example, 5 µL of the diluted HDAC substrate, 5 µL of BSA (1 mg/ml), 5 µL of the HDAC enzyme diluted to the appropriate concentration, and 30 µL of assay buffer were added, and the enzyme reaction was performed at 37°C for 30 minutes. […] Afterwards, 50 µL of 2X HDAC developer was added to each well. After reacting for 15 minutes at room temperature, the fluorescence values at excitation wavelengths of 350-380 nm and emission wavelengths of 440-460 nm were measured using a microplate reader (Synergy Neo).

HDAC8 [1] = target: T1, HDAC8 (Homo sapiens, UniProt Q9BY41); test: as above; format: biochemical
T1 construct: purchased BPS bioscience
T1 sequence (Q9BY41 1-377): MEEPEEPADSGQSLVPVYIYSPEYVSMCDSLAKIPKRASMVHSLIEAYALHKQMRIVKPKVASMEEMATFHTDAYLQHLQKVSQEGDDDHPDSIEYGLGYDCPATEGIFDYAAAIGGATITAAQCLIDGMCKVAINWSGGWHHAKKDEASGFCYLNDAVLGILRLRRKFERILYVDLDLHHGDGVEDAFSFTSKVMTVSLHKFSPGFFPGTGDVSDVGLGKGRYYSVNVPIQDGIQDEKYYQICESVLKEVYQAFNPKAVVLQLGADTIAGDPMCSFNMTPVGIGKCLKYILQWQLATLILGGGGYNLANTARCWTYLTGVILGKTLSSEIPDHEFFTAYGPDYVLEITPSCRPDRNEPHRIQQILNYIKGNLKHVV
Protocol: as §1

PC-3 cell lines = test: Prostate cancer model, PC-3 cell lines subcutaneously transplanted, tumor volume and weight; format: in vivo, nude mice; settings: result in words
Protocol: A prostate cancer model was established by subcutaneously transplanting PC-3 cell lines into nude mice, and the mice were divided into two groups (group 1: vehicle administration group (10% DSMO, 30% PEG400, 60% DW), group 2: 50 mg/kg Example 27 compound administration group). The drug was administered orally once a day for 12 times. To evaluate the therapeutic efficacy, tumors were […] before drug administration and on days 3, 6, 8, 10, 12, and 14 after drug administration, and tumor volumes were measured. Tumor volume (mm^3) was calculated as follows (tumor volume (mm^3) = (A X B^2)/2, where A = tumor long axis, B = tumor short axis), and the results are shown in FIG. 2.
Meanwhile, on day 12 of drug administration, the tumor was removed and its weight was measured, the results are shown in FIG. 3, and a photograph of the removed tumor was taken and shown in FIG. 4.

HDAC9 = HDAC9 (Homo sapiens, UniProt Q9UKV0); test: Selective HDAC inhibition, HDAC Fluorogenic assay kit; settings: read-out: HDAC9 enzyme activity (%)
Chain of HDAC9 (Q9UKV0 whole entry): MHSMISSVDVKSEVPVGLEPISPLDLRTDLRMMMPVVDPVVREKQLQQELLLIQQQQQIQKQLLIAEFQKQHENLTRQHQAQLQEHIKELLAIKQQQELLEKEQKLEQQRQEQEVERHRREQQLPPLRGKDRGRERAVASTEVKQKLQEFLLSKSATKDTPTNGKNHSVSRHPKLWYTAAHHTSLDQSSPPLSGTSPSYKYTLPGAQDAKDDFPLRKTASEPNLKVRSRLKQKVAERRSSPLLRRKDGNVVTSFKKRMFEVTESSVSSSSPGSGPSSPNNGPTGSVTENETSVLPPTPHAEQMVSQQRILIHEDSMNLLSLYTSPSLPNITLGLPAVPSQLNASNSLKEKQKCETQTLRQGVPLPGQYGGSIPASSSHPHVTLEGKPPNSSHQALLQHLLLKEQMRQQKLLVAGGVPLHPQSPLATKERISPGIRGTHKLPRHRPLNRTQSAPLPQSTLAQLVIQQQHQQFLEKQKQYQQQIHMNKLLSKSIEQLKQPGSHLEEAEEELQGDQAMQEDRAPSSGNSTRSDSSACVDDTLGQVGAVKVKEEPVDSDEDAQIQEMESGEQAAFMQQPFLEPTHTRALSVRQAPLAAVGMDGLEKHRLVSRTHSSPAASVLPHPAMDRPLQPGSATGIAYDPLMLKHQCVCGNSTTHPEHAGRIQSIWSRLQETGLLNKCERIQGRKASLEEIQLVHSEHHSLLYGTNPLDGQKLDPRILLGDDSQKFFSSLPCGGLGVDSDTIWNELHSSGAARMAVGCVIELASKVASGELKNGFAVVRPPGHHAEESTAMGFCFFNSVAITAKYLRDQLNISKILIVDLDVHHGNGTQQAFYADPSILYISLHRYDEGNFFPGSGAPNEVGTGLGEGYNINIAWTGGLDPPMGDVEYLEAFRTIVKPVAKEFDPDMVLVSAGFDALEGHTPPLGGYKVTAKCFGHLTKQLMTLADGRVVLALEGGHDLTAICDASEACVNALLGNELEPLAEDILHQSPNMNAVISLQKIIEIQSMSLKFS
Protocol: as §1

HDAC7 = target: T2, HDAC7 (Homo sapiens, UniProt Q8WUI4); test: as above; format: biochemical; settings: final concentration 10 µM; HDAC substrate 2A 200 µM; positive control (1% DMSO) set to 100; read-out: HDAC7 enzyme activity (%)
T2 construct: purchased BPS bioscience
T2 sequence (Q8WUI4 1-952): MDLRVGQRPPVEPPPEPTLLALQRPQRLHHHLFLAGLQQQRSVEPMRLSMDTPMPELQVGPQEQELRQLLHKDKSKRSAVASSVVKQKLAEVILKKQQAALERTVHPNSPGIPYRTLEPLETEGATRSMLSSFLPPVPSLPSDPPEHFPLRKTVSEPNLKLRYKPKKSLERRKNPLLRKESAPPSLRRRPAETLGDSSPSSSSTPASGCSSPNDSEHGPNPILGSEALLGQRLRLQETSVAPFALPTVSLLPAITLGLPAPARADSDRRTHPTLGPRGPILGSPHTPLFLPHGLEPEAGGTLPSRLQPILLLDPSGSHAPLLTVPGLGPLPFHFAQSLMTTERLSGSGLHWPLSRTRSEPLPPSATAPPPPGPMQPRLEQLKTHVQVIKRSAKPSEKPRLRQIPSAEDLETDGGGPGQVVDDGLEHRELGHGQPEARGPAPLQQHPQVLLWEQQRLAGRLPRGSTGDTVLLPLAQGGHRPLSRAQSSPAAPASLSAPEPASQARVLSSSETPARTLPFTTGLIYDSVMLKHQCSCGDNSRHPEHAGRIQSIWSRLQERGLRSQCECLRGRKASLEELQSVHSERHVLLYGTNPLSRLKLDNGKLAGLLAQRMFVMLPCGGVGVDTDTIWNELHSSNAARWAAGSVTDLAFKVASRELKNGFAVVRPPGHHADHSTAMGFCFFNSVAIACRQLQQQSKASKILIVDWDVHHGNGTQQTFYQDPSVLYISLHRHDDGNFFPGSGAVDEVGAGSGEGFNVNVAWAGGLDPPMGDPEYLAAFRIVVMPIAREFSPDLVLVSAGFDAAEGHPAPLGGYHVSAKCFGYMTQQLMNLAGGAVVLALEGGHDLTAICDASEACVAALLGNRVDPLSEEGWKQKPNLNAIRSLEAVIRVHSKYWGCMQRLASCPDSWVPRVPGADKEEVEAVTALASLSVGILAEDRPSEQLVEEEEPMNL
Protocol: as §1

HDAC11 = target: T3, HDAC11 (Homo sapiens, UniProt Q96DB2); test: as above; settings: read-out: HDAC11 enzyme activity (%)
T3 sequence (Q96DB2 1-347): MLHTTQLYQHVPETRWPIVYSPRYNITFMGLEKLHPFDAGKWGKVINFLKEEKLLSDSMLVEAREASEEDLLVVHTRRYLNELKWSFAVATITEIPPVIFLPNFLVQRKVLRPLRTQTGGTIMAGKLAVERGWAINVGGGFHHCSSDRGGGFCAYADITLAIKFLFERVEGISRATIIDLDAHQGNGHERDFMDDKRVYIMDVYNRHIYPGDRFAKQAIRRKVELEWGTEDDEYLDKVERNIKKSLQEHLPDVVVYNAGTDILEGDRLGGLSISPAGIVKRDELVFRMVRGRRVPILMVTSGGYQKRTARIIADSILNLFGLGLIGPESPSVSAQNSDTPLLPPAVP
Protocol: as §1

HDAC8 [2] = target: T1, HDAC8; test: HDAC8 inhibitory activity analysis (in vitro), RFU analysis, HDAC Fluorogenic assay kit; format: biochemical
Protocol: The compound of the Example was diluted to 1 mM (1% DMSO concentration) using DMSO to obtain a final concentration of 10 µM, and prepared by diluting 1/10 with assay buffer. In a 96-well black round-bottom plate, 5 µL of the diluted compound of the Example, 5 µL of the diluted HDAC substrate 2A, 5 µL of BSA (1 mg/mL), 5 µL of the HDAC8 enzyme diluted to an appropriate concentration, and 30 µL of assay buffer were added, and the enzyme reaction was performed at 37°C for 30 minutes. […] Afterwards, 50 µL of 2X HDAC developer was added to each well. After reacting for 15 minutes at room temperature, the fluorescence values at excitation wavelengths of 350-380 nm and emission wavelengths of 440-460 nm were measured using a microplate reader (Synergy Neo).

Liver cancer cells Huh-7 = test: Liver cancer cell growth inhibition, CellTiter-Glo Luminescent Cell Viability Assay; format: cell-based; settings: Huh-7 cells, various concentrations, day 1, FIG. 6; result in words
Protocol: In addition, an analysis of liver cancer growth inhibitory activity was performed. Liver cancer cells Huh-7 cells were dispensed in a 96-well plate at 1 × 10^4 cells/ml, and after 20 hours, PCI34051, Example 27, and Example 35 were added at various concentrations, and cultured for 24 and 48 hours at 37°C in a 5% CO2 atmosphere. After culturing, 100 µl CellTiter-Glo Luminescent Cell Viability Assay reagent was added and the luminescence signal was measured after 0.5-1 hour. The luminescence signal was measured using IVIS [PerkinElmer, (Waltham, USA)].

Chain of HDAC4 (P56524 whole entry): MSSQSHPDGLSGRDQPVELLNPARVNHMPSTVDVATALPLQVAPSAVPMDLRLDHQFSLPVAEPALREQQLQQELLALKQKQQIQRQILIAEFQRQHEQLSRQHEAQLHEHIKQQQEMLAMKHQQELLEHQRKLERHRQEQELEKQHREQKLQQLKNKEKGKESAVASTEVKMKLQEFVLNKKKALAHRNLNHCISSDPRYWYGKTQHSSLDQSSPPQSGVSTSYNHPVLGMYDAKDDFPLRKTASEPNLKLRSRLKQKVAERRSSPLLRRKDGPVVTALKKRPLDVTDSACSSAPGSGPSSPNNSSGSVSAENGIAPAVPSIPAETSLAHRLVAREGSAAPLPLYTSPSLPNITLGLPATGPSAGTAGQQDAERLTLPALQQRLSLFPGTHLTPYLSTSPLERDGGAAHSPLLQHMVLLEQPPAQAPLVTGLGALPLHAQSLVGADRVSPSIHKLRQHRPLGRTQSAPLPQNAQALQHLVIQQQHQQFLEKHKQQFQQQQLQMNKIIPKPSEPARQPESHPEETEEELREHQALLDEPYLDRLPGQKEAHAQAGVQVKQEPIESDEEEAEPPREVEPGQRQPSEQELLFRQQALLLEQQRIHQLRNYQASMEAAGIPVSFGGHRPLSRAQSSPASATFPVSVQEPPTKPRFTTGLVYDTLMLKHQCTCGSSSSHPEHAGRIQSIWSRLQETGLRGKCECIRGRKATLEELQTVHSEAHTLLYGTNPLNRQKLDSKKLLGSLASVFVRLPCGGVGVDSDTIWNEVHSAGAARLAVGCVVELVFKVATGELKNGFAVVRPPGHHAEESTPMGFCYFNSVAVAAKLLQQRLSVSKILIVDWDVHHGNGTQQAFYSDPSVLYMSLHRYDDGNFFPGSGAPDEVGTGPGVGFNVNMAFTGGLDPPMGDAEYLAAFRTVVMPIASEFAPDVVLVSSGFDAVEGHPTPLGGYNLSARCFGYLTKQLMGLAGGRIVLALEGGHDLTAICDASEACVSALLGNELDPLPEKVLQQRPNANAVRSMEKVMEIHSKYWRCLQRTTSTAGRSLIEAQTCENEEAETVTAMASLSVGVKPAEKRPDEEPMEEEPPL

Cc1cc2nc(C(=O)NCCc3c[nH]c4ccc(O)cc34)c(=O)n(C[C@H](O)[C@H](O)[C@H](O)CO)c2cc1C [Example 27, N-(2-(5-hydroxy-1H-indol-3-yl)ethyl)-6,7-dimethyl-3-oxo-4-((2S,3S,4R)-2,3,4,5-tetrahydroxypentyl)-3,4-dihydroquinoxaline-2-carboxamide]
remaining activity at 10 µM (HDAC4): 98.2% | remaining activity at 10 µM (HDAC8 [1]; final concentration 10 µM, HDAC substrate 2A 20 µM, positive control (1% DMSO) set to 100, read-out: HDAC8 enzyme activity (%)): 14.1% | selective inhibitory effect on HDAC8 (HDAC8 [1]; result in words, HDAC8 versus HDAC1, 2, 3, 4, 6, 7, 9, 10, 11, summary of Table 3): selective and excellent inhibitory activity only against HDAC8 | tumor volume (PC-3 cell lines; 50 mg/kg orally once a day for 12 times, up to day 14, *p<0.05 compared with vehicle, FIG. 2): significantly reduced tumor volume growth rate compared to group 1 | tumor weight (PC-3 cell lines; 50 mg/kg orally once a day, tumor removed on day 12, ***p<0.0005 compared with vehicle, FIG. 3): vehicle administration group (group 1) had a significantly higher tumor weight | remaining activity at 10 µM (HDAC9): 66.5% | remaining activity at 10 µM (HDAC7): 91.2% | remaining activity at 10 µM (HDAC11): 97.3% | RFU (%) (HDAC8 [2]; compound final concentration 10 µM, HDAC substrate 2A 20 µM, positive control (1% DMSO) set to 100, lower = more inhibition): 7.62% | inhibitory activity against HDAC8 (HDAC8 [2]; result in words, summary of Table 2, 10 µM): inhibitory activity similar to TSA or SAHA | cell viability (Liver cancer cells Huh-7): concentration-dependent inhibition of cancer cell viability
